Test results as given in PubChem BioAssay (NCI).
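These data come from cells grown in 96-well plates and exposed to compound for 48 hours at five concentrations. At the GI50, growth is halved. TGI marks complete inhibition of growth.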

Assays:
Assay in all cases: DTP human tumour cell line panel, 48 h
[1] = tested on: HT29 colon
[2] = tested on: RPMI-8226 leukemia
[3] = tested on: NCI-H522 lung
[4] = tested on: A498 renal
[5] = tested on: A549 NSCLC
[6] = tested on: SW-620 colon
[7] = tested on: EKVX NSCLC
[8] = tested on: HOP-92 NSCLC
[9] = tested on: SK-MEL-5 melanoma
[10] = tested on: NCI-H226 lung

| SMILES | TGI [1] | TGI [2] | TGI [3] | TGI [4] | TGI [5] | TGI [6] | TGI [7] | TGI [8] | TGI [9] | TGI [10] | GI50 [10] | GI50 [1] | GI50 [2] | GI50 [4] | GI50 [5] | GI50 [6] | GI50 [7] | GI50 [8] | GI50 [9] | GI50 [3] |
| --- | --- | --- | --- | --- | --- | --- | --- | --- | --- | --- | --- | --- | --- | --- | --- | --- | --- | --- | --- | --- |
| CCOC(=O)NC(=O)c1cn(CCN2CCN(C(=O)NCCCCCCNC(=O)N3CCN(CCn4cc(C(=O)NC(=O)OCC)c(=O)n(CCN(CC)CC)c4=O)CC3)CC2)c(=O)n(CCC(CC)CC)c1=O | > 100 µM | > 100 µM | > 100 µM | > 100 µM | > 100 µM | > 100 µM | > 100 µM | > 100 µM | > 100 µM |  |  |  |  |  |  |  |  |  |  |  |
| O=C1C[C@H]2CC3(CC[C@H]2CN1)OCCO3 | > 100 µM | > 100 µM | > 100 µM | > 100 µM | > 100 µM | > 100 µM | > 100 µM | > 100 µM | > 100 µM |  |  |  |  |  |  |  |  |  |  |  |
| N#CN1CCC=C(c2cc3ccccc3[nH]2)C1 | > 448 µM | > 448 µM | 298 µM |  | > 448 µM | > 448 µM | > 448 µM | 427 µM | > 448 µM | > 448 µM |  |  |  |  |  |  |  |  |  |  |
| CN(C)c1ccc(O)c2c1C[C@H]1C[C@H]3[C@H](N(C)C)C(=O)C(C(N)=O)=C(O)[C@@]3(O)C(=O)C1=C2O | > 100 µM | 31.1 µM |  | 10.5 µM | > 100 µM | > 100 µM | > 100 µM | 26.9 µM | 14.7 µM | 84.5 µM | 8.58 µM | 10.2 µM | 4.28 µM | 1.49 µM | 5.65 µM | 5.84 µM | 6.7 µM | 3.6 µM | 3.38 µM |  |
| N=C(N)c1ccc(-c2ccc(-c3cccs3)s2)nc1 | 3.83 µM | 2.78 µM | 3.44 µM | 0.74 µM | 1.28 µM | 3.93 µM |  | 2.23 µM | 3.78 µM | 15.8 µM | 2 µM | 1.6 µM | 0.434 µM | 0.165 µM | 0.023 µM | 1.85 µM |  | 0.46 µM | 1.8 µM | 1.61 µM |
| CC1/C(=N/Nc2ccc([N+](=O)[O-])cc2)CC2C3(C)CCC2(C(C)C(=O)O)C(=O)C13 (centres undefined) | > 100 µM | 24 µM | > 100 µM | 41.9 µM | > 100 µM | > 100 µM | > 100 µM | > 100 µM | > 100 µM |  |  | 6.18 µM | 2.95 µM | 0.85 µM | 5.5 µM | 49.4 µM | 3.36 µM | 23.6 µM | 11.4 µM | 4.48 µM |
| CC(C)CCc1c(Cl)nc(Cl)nc1Cl | 28.9 µM | > 100 µM | 9.89 µM |  | 54.9 µM | > 100 µM | 63.2 µM |  | 16.4 µM | 14.6 µM |  |  |  |  |  |  |  |  |  |  |
| O=C1C[C@@H]2CCCC[C@@H]2C12SCCS2 |  | > 100 µM | > 100 µM | > 100 µM | > 100 µM | > 100 µM | > 100 µM |  | > 100 µM |  |  |  |  |  |  |  |  |  |  |  |
| COc1cc(C(=O)CC2(O)C(=O)Nc3c(Cl)cc(Cl)cc32)ccc1O (centres undefined) | > 100 µM | > 100 µM | > 100 µM |  | > 100 µM | > 100 µM | > 100 µM | > 100 µM | > 100 µM | > 100 µM |  |  |  |  |  |  |  |  |  |  |
| CS/C(c1ccccc1)=[N+](/C)[O-] | > 100 µM | > 87.1 µM | > 100 µM | > 100 µM | > 100 µM | > 100 µM | > 100 µM | > 100 µM | > 100 µM |  |  |  |  |  |  |  |  |  |  |  |
| Cc1ccc(N2C(=O)/C(=C/c3ccc(N(CCC#N)CCC#N)cc3C)N=C2c2cc([N+](=O)[O-])ccc2Cl)cc1 | > 100 µM | > 100 µM | > 100 µM | > 100 µM | > 100 µM | > 100 µM |  | > 100 µM | > 100 µM | > 100 µM |  |  |  |  |  |  |  |  |  |  |
| CSC1C(=O)c2ccccc2/C(=N/Nc2nc3ccccc3s2)C1C (centres undefined) |  | > 50 µM | 26.3 µM |  | 44.4 µM | 34.1 µM | 18.4 µM | 25.2 µM | 9.78 µM |  |  |  | 7.44 µM |  | 16 µM | 12.9 µM | 8.44 µM | 7.93 µM | 1.6 µM | 6.95 µM |
| O=C1C(=O)c2ccccc2C(O)=C1CCCCCCCCC1CCCCC1 | 31 µM | 56.7 µM | 25.7 µM |  | 23.5 µM | 17.7 µM |  |  | 23.7 µM |  |  |  |  |  |  |  |  |  |  |  |
| Clc1ccc2c(c1)-c1ccccc1C1=NCCN12 | 3.6 µM | 4.36 µM | 3.48 µM |  | 3.77 µM | 6.53 µM | 9.09 µM | 3.29 µM | 2.94 µM | 3.53 µM | 1.45 µM | 1.17 µM | 1.91 µM |  | 1.53 µM | 1.11 µM | 2.25 µM | 1.19 µM | 1.56 µM | 1.52 µM |
| O=C(CCCCCCC(=O)Nc1ccc2c(c1)/C(=C/c1ccc[nH]1)C(=O)N2)NO | 8.51 µM | > 100 µM | 0.891 µM | 2.06 µM | 15.2 µM | > 21.9 µM |  | 2.76 µM | 1.41 µM | 12 µM | 2.28 µM | 0.506 µM | 2.9 µM | 0.358 µM | 2.87 µM | 0.271 µM |  | 0.317 µM | 0.24 µM | 0.0829 µM |
| Cc1nn(-c2nc3ccccc3[nH]2)c2c1C(c1ccc3c(c1)OCO3)CC(=O)N2 (centres undefined) | > 23.6 µM | 5.02 µM | 5.41 µM | 4.42 µM | 7.73 µM | 9.63 µM |  | 7.14 µM | 3.76 µM | 7.09 µM | 2.45 µM | 3.01 µM | 2.22 µM | 1.61 µM | 2.56 µM | 2.86 µM |  | 2.66 µM | 1.88 µM | 2.22 µM |
| c1ccc(SC(CCCCOC2CCCCO2)Sc2ccccc2)cc1 (centres undefined) | > 100 µM | > 100 µM | 53.8 µM | > 100 µM | > 100 µM | > 100 µM | > 100 µM | > 100 µM | > 100 µM |  |  |  |  |  |  |  |  |  |  |  |
| NC(CCSC(F)F)C(=O)O (centres undefined) | > 100 µM |  | > 100 µM |  | > 100 µM | > 100 µM | > 100 µM | > 100 µM | > 100 µM | > 100 µM |  |  |  |  |  |  |  |  |  |  |
| Cc1cccc2c1C(=O)OC2(C)c1cccc2ccccc12 (centres undefined) | > 100 µM | > 100 µM | 40.4 µM |  | > 100 µM | > 100 µM | > 100 µM | 61.4 µM | 45.3 µM | 57.2 µM |  |  |  |  |  |  |  |  |  |  |
| O=C1c2c(nc3ccccc3c2-c2ccccc2)CN1Nc1ccccc1 | > 100 µM | > 100 µM | > 100 µM |  | > 100 µM | > 100 µM | > 100 µM | > 100 µM | > 100 µM | > 100 µM |  |  |  |  |  |  |  |  |  |  |
| COc1cc([N+](=O)[O-])c(OC)cc1-c1nc2sc(Cl)cn2c1/C=N/NC(=N)N/N=C/c1c(-c2cc(OC)c([N+](=O)[O-])cc2OC)nc2sc(Cl)cn12 | > 100 µM |  |  | 3.13 µM |  | 3.55 µM |  |  | 3.12 µM |  |  | 3.78 µM |  | 1.7 µM |  | 1.85 µM |  |  | 1.66 µM |  |
| COc1cc2cccc(NC(=O)c3cc(OC)c(OC)c(OC)c3Br)c2cc1OC | 71.9 µM | 17 µM | 42.1 µM | > 100 µM | 46 µM | 71 µM | 75.9 µM |  | 10.6 µM |  |  |  |  |  |  |  |  |  |  |  |
| CC1(C)C2C/C(=C\c3ccccc3)C(=O)C1C2 (centres undefined) | > 100 µM | > 100 µM | > 100 µM | > 100 µM | > 100 µM | > 100 µM | > 100 µM | > 100 µM | > 100 µM |  |  |  |  |  |  |  |  |  |  |  |
| C=CC(=O)Nc1cccc(C)c1Nc1ncc2cc(-c3c(Cl)c(OC)cc(OC)c3Cl)ccc2n1 | 67.7 µM | 7.54 µM | 26.9 µM |  | 97.4 µM | 39.5 µM | 52.9 µM | 36.8 µM | 9.63 µM | 18.1 µM | 3.18 µM | 6.31 µM | 1.44 µM |  | 7.27 µM | 3.9 µM | 6.85 µM | 6.99 µM | 2.61 µM | 10.2 µM |
| CC(=O)c1c[nH]cc1CO |  | > 10 µM |  | > 10 µM | > 10 µM | > 10 µM |  | > 10 µM | > 10 µM | > 10 µM |  |  |  |  |  |  |  |  |  |  |
| Clc1nc(Cl)c(Cc2ccccc2)c(Cl)n1 | 25.3 µM | > 100 µM | 3.04 µM |  | 27.5 µM | > 100 µM | 33.2 µM |  | 8.39 µM | 32.4 µM |  |  |  |  |  |  |  |  |  |  |
| Cc1ccc(/C=C2\CCCC\C2=N\O)cc1 | > 100 µM |  |  | > 100 µM | > 100 µM | > 100 µM | > 100 µM |  | > 100 µM |  |  |  |  |  |  |  |  |  |  |  |
| N#C[S-].[Au+].c1ccc(CN2[CH-]N(Cc3ccccc3)C(c3ccccc3)=C2c2ccccc2)cc1 |  |  |  | 0.822 µM | 3.24 µM | 2.99 µM |  | 1 µM |  |  |  |  |  | 0.251 µM | 0.593 µM | 0.421 µM |  | 0.292 µM |  |  |
| CN1CCn2c(c(Sc3ccc(C(=O)NO)cc3)c3ccccc32)C1=O | 9.38 µM | > 24.5 µM | 2.66 µM | 1.8 µM | 13 µM | 5.14 µM |  | 3.53 µM | 3.15 µM | 3.9 µM | 1.78 µM | 2.92 µM | 1.24 µM | 0.151 µM | 3.45 µM | 1.86 µM |  | 1.67 µM | 1.7 µM | 1.13 µM |
| Cc1cccc2c1C/C(=C1\CCc3c(C)cccc31)C2=O | > 100 µM |  |  | > 100 µM | > 100 µM | > 100 µM | > 100 µM |  | > 100 µM | > 100 µM |  |  |  |  |  |  |  |  |  |  |
